Source: patent US20200038399A1, “FORMULATIONS, METHODS, KIT, AND DOSAGE FORMS FOR TREATING BACTERIAL INFECTION” (Motif BioSciences Inc., priority 2016, published 2020)
Like-named read-outs stand apart in the source and are kept apart here.

Legend:
[1] = tested on: S. aureus 101; experiment: checkerboard synergy assay with iclaprim; type: cell-based, Staphylococcus aureus; conditions: antibiotic in combination with iclaprim
Experimental: (§1) The synergistic potential of iclaprim against Gram-positive and Gram-negative bacteria was determined using the checkerboard assay as described in Eliopoulos GM and Moellering, Jr. RC (1991), Antimicrobial combinations, pp. 432-492, in V. Lorian (ed.), Antibiotics in laboratory medicine, 3rd Ed., The Williams & Wilkins Co., Baltimore, the entire disclosure of which is herein incorporated by reference, allowing multiple test concentrations of iclaprim to be assayed in the presence of various concentrations of the other antibiotic in microtiter plates. The same growth media and conditions were used as described in 3.2 below.
(§2) Two different dilutions were used for iclaprim depending on the MIC determined for the bacterium. […] Iclaprim and the other antibiotic being tested were also dispensed alone in the last row and in the last column, respectively, as controls.
(§3) The Fractional Inhibitory Concentrations (FIC) for each added agent were calculated and used to determine the sum of FIC (ΣFIC) indicative of the synergistic potential of a given combination as described in Veyssier P. (1999), Inhibiteurs de la dihydrofolate reductase, nitrohétérocycles (furanes) et 8-hydroxyquinoleines, pp. 995-1027, in A. Bryskier (ed.), Antibiotiques agents antibatériens et antifongiques, 1st Ed., Ellipses Edition Marketing SA, Paris, the entire disclosure of which is herein incorporated by reference. Synergy was defined whereby the ΣFIC was <0.5, indifference (no synergy nor antagonism) whereby ΣFIC was ≥0.5 but ≤4, and antagonism whereby ΣFIC was >4. Additivity as a special form of indifference was defined whereby the ΣFIC was ≥0.5 but <1, for example as described in Stevens, D L et al. (1998), In vitro antimicrobial effects of various combinations of penicillin and clindamycin against four strains of Streptococcus pyogenes, J. Antimicrob. Chemother. 42: 1266-1268, the entire disclosure of which is herein incorporated by reference.

[2] = tested on: Haemophilus influenzae ATCC 49766; experiment: checkerboard synergy assay with iclaprim; type: cell-based; conditions: antibiotic in combination with iclaprim; H. influenzae 49766
Experimental: as §1, §2, §3

[3] = tested on: Staphylococcus aureus ATCC 25923; experiment: checkerboard synergy assay with iclaprim; type: cell-based; conditions: antibiotic in combination with iclaprim; S. aureus 25923
Experimental: as §1, §2, §3

[4] = tested on: Streptococcus pneumoniae ATCC 49619; experiment: checkerboard synergy assay with iclaprim; type: cell-based; conditions: antibiotic in combination with iclaprim; S. pneumoniae 49619
Experimental: as §1, §2, §3

[5] = tested on: Moraxella catarrhalis RA 21; experiment: checkerboard synergy assay with iclaprim; type: cell-based; conditions: antibiotic in combination with iclaprim; M. catarrhalis RA 21
Experimental: as §1, §2, §3

[6] = tested on: Klebsiella pneumoniae ATCC 33495; experiment: checkerboard synergy assay with iclaprim; type: cell-based; conditions: antibiotic in combination with iclaprim; K. pneumoniae 33495
Experimental: as §1, §2, §3

[7] = tested on: S. pneumoniae 1/1; experiment: checkerboard synergy assay with iclaprim; type: cell-based, Streptococcus pneumoniae; conditions: antibiotic in combination with iclaprim
Experimental: as §1, §2, §3

[8] = tested on: S. aureus 101; experiment: MIC determination; type: cell-based, Staphylococcus aureus
Experimental: (§4) Minimum inhibitory concentration (MIC) determination.
(§5) In order to choose the appropriate concentrations to be tested in the checkerboard experiments, minimum inhibitory concentrations (MICs) were determined first. […] Table 6) in microtiter plates. Stock solutions (10 mg/ml) of reference antibiotics were prepared in DMSO (except for tobramycin, gentamicin, lomefloxacin, tetracycline) and stored at 4° C. The bacteria were grown in Mueller-Hinton Broth (BBL Mueller-Hinton Broth II, cation adjusted). S. pneumoniae was grown in Mueller-Hinton Broth supplemented with 5% (v/v) lysed sheep blood. For the growth of H. influenzae HTM (Haemophilus test medium) was used containing Mueller-Hinton broth, yeast extract ([…], Difco) and supplemented with NAD and hematin (HTM Supplement, Oxoid SR0158E). M. catarrhalis was grown in Brain Heart Infusion medium (Oxoid). The bacteria were incubated for 18 hours at 37° C. in ambient air except for S. pneumoniae, H. influenzae and M. catarrhalis, which were incubated in the presence of 5% CO2. The MIC was determined as the lowest concentration of an individual drug that lead to no visible growth.

[9] = tested on: S. pneumoniae 1/1; experiment: MIC determination; type: cell-based, Streptococcus pneumoniae; conditions: for MIC: Streptococcus pneumoniae, read-out: Minimum inhibitory concentrations (MIC)
Experimental: as §4, §5

[10] = tested on: Haemophilus influenzae ATCC 49766; experiment: MIC determination; type: cell-based; conditions: for MIC: Haemophilus influenzae, read-out: Minimum inhibitory concentrations (MIC)
Experimental: as §4, §5

[11] = tested on: Staphylococcus aureus ATCC 25923; experiment: MIC determination; type: cell-based; conditions: for MIC: Staphylococcus aureus, read-out: Minimum inhibitory concentrations (MIC)
Experimental: as §4, §5

[12] = tested on: Streptococcus pneumoniae ATCC 49619; experiment: MIC determination; type: cell-based; conditions: for MIC: Streptococcus pneumoniae, read-out: Minimum inhibitory concentrations (MIC)
Experimental: as §4, §5

[13] = tested on: Moraxella catarrhalis RA 21; experiment: MIC determination; type: cell-based; conditions: for MIC: Moraxella catarrhalis, read-out: Minimum inhibitory concentrations (MIC)
Experimental: as §4, §5

[14] = tested on: Klebsiella pneumoniae ATCC 33495; experiment: MIC determination; type: cell-based; conditions: for MIC: Klebsiella pneumoniae, read-out: Minimum inhibitory concentrations (MIC)
Experimental: as §4, §5

[15] = Staphylococcus aureus, 101, 18 h; read-out: Minimum inhibitory concentrations (MIC)
[16] = S. pneumoniae 1/1, 18 hours at 37° C., 5% CO2
[17] = ATCC49766, H. Influenza 49766, 18 hours at 37° C., 5% CO2
[18] = ATCC25923, S. aureus 25923, 18 hours at 37° C.
[19] = ATCC49619, S. pneumoniae 49619, 18 hours at 37° C., 5% CO2
[20] = RA21, M. catarrhalis RA 21, 18 hours at 37° C., 5% CO2
[21] = ATCC33495, K. pneumonia 33495, 18 hours at 37° C.

Compound | Σ FIC [1] | Con (Conclusion) [2] | Σ FIC [2] | Σ FIC [3] | Σ FIC [4] | Con (Conclusion) [5] | Σ FIC [5] | Con (Conclusion) [6] | Σ FIC [6] | Σ FIC [7] | MIC [8, 15] [µg/mL] | MIC [9, 16] [µg/mL] | MIC [10, 17] [µg/mL] | MIC [11, 18] [µg/mL] | MIC [12, 19] [µg/mL] | MIC [13, 20] [µg/mL] | MIC [14, 21] [µg/mL] | also measured
NC[C@H]1O[C@H](O[C@H]2[C@H](O)[C@@H](O[C@H]3O[C@H](CO)[C@@H](O)[C@H](N)[C@H]3O)[C@H](N)C[C@@H]2N)[C@H](N)C[C@@H]1O [Tobramycin] | 1.01-1.50 | Ind (Indifference (Ind)) | 1.02-1.50 | 0.99-1.25 | 1.00-1.25 | Ad (Additivity (Ad)) | 0.63-1.25 | Ad (Additivity (Ad)) | 0.52-1.13 | 0.63-1.13 | > 128 | 32 | 0.5 | 0.5 | 32 | 4 | 1 | –
CN(C)[C@@H]1C(O)=C(C(N)=O)C(=O)[C@@]2(O)C(O)=C3C(=O)c4c(O)cccc4[C@@](C)(O)[C@H]3C[C@@H]12 [Tetracycline, Tetracyclin] | 1.02-2.50 | Ad (Additivity (Ad)) | 0.56-1.25 | 2.05-2.48 | 0.75-1.25 | Ind (Indifference (Ind)) | 1.13-1.50 | Ad (Additivity (Ad)) | 0.56-1.03 | 0.75-1.13 | 128 | 16 | – | 0.5 | 0.25 | 0.25 | 128 | MIC ([10]; ATCC49766, 18 h): 0.5 µg/mL
NC(=O)c1cc[n+](CC2=C(C(=O)O)N3C(=O)[C@@H](NC(=O)[C@@H](c4ccccc4)S(=O)(=O)[O-])[C@H]3SC2)cc1 [Cefsulodine, Cefsulodin] | 1.00-1.25 | Ind (Indifference (Ind)) | 1.01-1.50 | 1.00-1.25 | 1.13-1.50 | Ind (Indifference (Ind)) | 1.00-1.25 | Ind (Indifference (Ind)) | 1.01-1.50 | 1.01-1.50 | 64 | > 128 | > 128 | 64 | 16 | > 128 | > 128 | –
C[C@H]1c2cccc(O)c2C(=O)C2=C(O)[C@]3(O)C(=O)C(C(N)=O)=C(O)[C@@H](N(C)C)[C@@H]3[C@@H](O)[C@@H]21 [Doxycycline] | 1.06-1.50 | Ind (Indifference (Ind)) | 1.00-1.00 | 1.02-1.50 | 1.02-1.51 | Ind (Indifference (Ind)) | 1.02-1.50 | Ind (Indifference (Ind)) | 1.01-1.50 | 1.25-1.50 | 16 | 2 | 0.5 | 0.5 | 0.5 | 0.5 | > 128 | –
Gentamicin | 1.01-1.50 | Ind (Indifference (Ind)) | 1.02-1.13 | 2.05-2.48 | 0.75-1.13 | Ind (Indifference (Ind)) | 1.00-1.25 | Ad (Additivity (Ad)) | 0.63-1.25 | 1.06-1.50 | – | – | – | – | – | – | – | Con (Conclusion) [1]: Ind (Indifference (Ind)); Con (Conclusion) [3]: Ind (Indifference (Ind)); Con (Conclusion) [4]: Ad (Additivity (Ad)); Con (Conclusion) [7]: Ind (Indifference (Ind)); Minimum inhibitory concentrations (MIC) ([8]; S. aureus 101; 18 hours at 37° C.): >128 µg/mL; Minimum inhibitory concentrations (MIC) [9, 16]: 32 µg/mL; Minimum inhibitory concentrations (MIC) ([10]; H. Influenza 49766, 18 hours at 37° C., 5% CO2): 2 µg/mL; Minimum inhibitory concentrations (MIC) ([11]; S. aureus 25923, 18 hours at 37° C.): 0.5 µg/mL; Minimum inhibitory concentrations (MIC) ([12]; S. pneumoniae 49619, 18 hours at 37° C., 5% CO2): 32 µg/mL; Minimum inhibitory concentrations (MIC) ([13]; M. catarrhalis RA 21, 18 hours at 37° C., 5% CO2): 2 µg/mL; Minimum inhibitory concentrations (MIC) ([14]; K. pneumonia 33495, 18 hours at 37° C.): 1 µg/mL
NC[C@H]1O[C@H](O[C@H]2[C@H](O)[C@@H](O[C@H]3O[C@H](CO)[C@@H](O)[C@H](N)[C@H]3O)[C@H](N)C[C@@H]2N)[C@H](O)[C@@H](O)[C@@H]1O [Kanamycin] | 1.01-1.50 | Ind (Indifference (Ind)) | 1.02-1.13 | 1.06-1.50 | 1.00-1.25 | Ind (Indifference (Ind)) | 1.00-1.25 | Ad (Additivity (Ad)) | 0.63-0.75 | 1.02-1.50 | > 128 | 128 | 2 | 2 | 32 | 4 | 4 | –
C=C(NC(=O)C(=C)NC(=O)c1csc(C2=N[C@@H]3c4csc(n4)[C@H]4NC(=O)c5csc(n5)[C@H]([C@](C)(O)[C@@H](C)O)NC(=O)[C@H]5CSC(=N5)/C(=C/C)NC(=O)[C@H]([C@@H](C)O)NC(=O)c5csc(n5)[C@]3(CC2)NC(=O)[C@H](C)NC(=O)C(=C)NC(=O)[C@H](C)NC(=O)[C@H]([C@@H](C)CC)N[C@@H]2C=Cc3c([C@H](C)O)cc(nc3[C@H]2O)C(=O)O[C@@H]4C)n1)C(N)=O [Thiostrepton] | 1.50-2.25 | Ind (Indifference (Ind)) | 1.02-1.50 | 1.02-1.50 | 1.12-1.50 | Ind (Indifference (Ind)) | 1.02-1.50 | Ind (Indifference (Ind)) | 1.01-1.50 | 1.12-1.50 | – | – | – | – | – | – | – | MIC ([8]; Staphylococcus aureus, 101, 18 h, read-out: Minimum inhibitory concentrations (MIC)): 0.5 µg/mL; MIC ([9]; 1/1, 18 h): 0.063 µg/mL; MIC ([10]; ATCC49766, 18 h): 32 µg/mL; MIC ([11]; ATCC25923, 18 h): 0.5 µg/mL; MIC ([12]; ATCC49619, 18 h): 0.063 µg/mL; MIC ([13]; RA21, 18 h): 0.5 µg/mL; MIC ([14]; ATCC33495, 18 h): > 128 µg/mL
